Results as given in US4179464A, “Preparation of N-(phosphonoacetyl)-L-aspartic acid” (priority 1978, dated 1979).
“Also recorded” adds a separate entry of the source. Where a name gives a salt, the structure may show the parent alone. Read-outs that look alike come from different tables or passages of the source.

How the values were obtained:
solubility = type: physicochemical
Procedure: (§1) The following determinations were made as to the physical properties of the disodium PALA. Except for the test for stability, these tests were carried out on material free of solvent contamination.

hygroscopic character = type: physicochemical; conditions: for physical state after moisture uptake: atmospheric moisture, eventually
Procedure: as §1
Hygroscopic Character. Tetrasodium PALA absorbs atmospheric moisture 1.5 times faster than the disodium salt.

[1] = test system: pyrimidine nucleotide biosynthesis; conditions: Stark et al. (1974); cited from earlier work
B16 tumor = conditions: NCI screening program, data through Aug. 31, 1976; cited from earlier work
Lewis Lung tumor = conditions: NCI screening program, data through Aug. 31, 1976; cited from earlier work
P388 tumor = conditions: NCI screening program, data through Aug. 31, 1976; cited from earlier work
[2] = test system: aspartate transcarbamylase; conditions: Stark et al., J. Biol. Chem., 246, 6599 (1971); cited from earlier work
tumor systems = assay: preliminary in vivo screening of PALA esters; conditions: relative to tetrasodium PALA
[3] = stability on drying in vacuo at 140° (NMR, TLC); type: physicochemical; conditions: dried in vacuo at 140° for 15.5 hours, sample containing acetic acid and ethanol
Procedure: as §1
Stability. A sample of disodium PALA was dried in vacuo at 140° for 15.5 hours. […] This is believed to be an ester produced at the elevated temperature in the presence of ethanol and acetic acid.

[4] = type: physicochemical
Procedure: as §1
pH. A 2% solution of the disodium salt in water has a pH of 4.08.

expected tumor systems = assay: activity of tetrasodium PALA samples in tumor systems; type: in vivo
Source text: In spite of the above mentioned problems involving the consistency of elemental analyses and the low hydrogen values, the tetrasodium PALA samples were characterized as highly pure materials by nmr, optical rotation (comparison with literature value), and thin layer chromatography (homogeneous in four different solvent systems).

With `O=C(CP(=O)(O)O)N[C@@H](CC(=O)OCc1ccccc1)C(=O)OCc1ccccc1` [IV, L-Aspartic acid, N-(phosphonoacetyl)-, dibenzyl ester] the “water solubility (in words)” value (solubility) was “insoluble in water” and the “hygroscopicity (in words)” value (hygroscopic character; listed as dibenzyl PALA) was “hygroscopic”.
In the case of `O=C(O)C[C@H](NC(=O)CP(=O)(O)O)C(=O)O` [N,N'-dibenzylethylenediamine salt], the solubility in ethanol (solubility; ethanol, preliminary) is reported as “soluble in ethanol”.
For `O=C(O)C[C@H](NC(=O)CP(=O)(O)O)C(=O)O` [PALA, N-(phosphonoacetyl)-L-aspartic acid], the “water solubility (in words)” value (solubility; water) is listed as “high water solubility”, the “inhibition of pyrimidine nucleotide biosynthesis in vitro” value [1] is listed as “inhibition of pyrimidine nucleotide biosynthesis in vitro” and the “activity against B16 tumor system” value (B16 tumor) is listed as “active”. The “activity against Lewis Lung tumor system” value (Lewis Lung tumor) was “active”, the “activity against P388 tumor system” value (P388 tumor) was “active” and the “transition state analogue inhibitor of aspartate transcarbamylase” value [2] was “transition state analogue inhibitor of aspartate transcarbamylase”.
With `O=C(CP(=O)(O)O)N[C@@H](CC(=O)OCc1ccccc1)C(=O)OCc1ccccc1` [XI, L-Aspartic acid, N-(phosphonoacetyl)-, dibenzyl ester, complexed with cyclohexylamine] the “fold less active than tetrasodium PALA” value (tumor systems) was “approximately 100 fold” and the “hygroscopicity (in words)” value (hygroscopic character) was “apparently less hygroscopic than (X)”.
For `O=C(CP(=O)(O)O)N[C@@H](CC(=O)OCc1ccccc1)C(=O)OCc1ccccc1` [X], the “fold less active than tetrasodium PALA” value (tumor systems) was “approximately 100 fold” and the “hygroscopicity (in words)” value (hygroscopic character) was “markedly hygroscopic”.
For `O=C(O)C[C@H](NC(=O)CP(=O)(O)O)C(=O)O` [calcium salt of PALA], the “water solubility (in words)” value (solubility; water) was “dissolves in water permitting ready formulation” and the “rate of dissolution in water” value (solubility; water, results tentative) was “dissolves relatively slowly”.
With `O=C(O)C[C@H](NC(=O)CP(=O)(O)O)C(=O)O` [cyclohexylamine salt] the “hygroscopicity (in words)” value (hygroscopic character) was “completely nonhygroscopic”.
In the case of `O=C([O-])C[C@H](NC(=O)CP(=O)(O)O)C(=O)[O-].[Na+].[Na+]` [disodium PALA, L-Aspartic acid, N-(phosphonoacetyl)-, disodium salt], the “water solubility (in words)” value (solubility; water) is reported as “extremely water soluble”, the solubility (solubility; water, solvent-free material) is reported as over 950 mg/mL and the “physical state after moisture uptake” value (hygroscopic character) is reported as “eventually take up enough moisture so as to lose their solid characteristics”. For the same molecule, the “hygroscopicity (in words)” value (hygroscopic character; disodium salt) was “less hygroscopic than tetrasodium PALA”, the “hygroscopicity (in words)” value (hygroscopic character; listed as Disodium PALA, disodium salt) was “less hygroscopic than the tetrasodium compound” and the “structural integrity by NMR” value [3] was “retained its structural integrity”. For the same molecule, the “change in thin layer chromatography” value ([3]; believed to be an ester) was “formation of a new, faster-running spot” and the “pH of aqueous solution” value ([4]; 2% solution in water) was 4.08.
In the case of `O=C(O)C[C@H](NC(=O)CP(=O)(O)O)C(=O)O` [tetrasodium PALA, L-Aspartic acid, N-(phosphonoacetyl)-, tetrasodium salt], the “hygroscopicity (in words)” value (hygroscopic character) is reported as “hygroscopic; also recorded: high degree of hygroscopicity”, the “physical state after moisture uptake” value (hygroscopic character) is reported as “eventually take up enough moisture so as to lose their solid characteristics” and the “rate of absorption of atmospheric moisture relative to the disodium salt” value (hygroscopic character; tetrasodium versus disodium salt, solvent-free material) is reported as 1.5 times faster. For the same molecule, the “activity in the expected tumor systems” value (expected tumor systems) was “active in the expected tumor systems”, the “pH when formulated in water” value ([4]; formulated in water) was 9.2 and the “physiological acceptability of alkalinity in water” value ([4]; formulated in water, pH 9.2) was “alkaline (pH 9.2) to a degree generally considered harmful physiologically”.
